From patent US11052028B2, “Process for depigmenting keratin materials using thiopyridinone compounds” (L'OREAL, priority 2010, dated 2021)
Entries after “also recorded” stand apart in the source; their conditions may differ.

Legend:
[1] = test system: coculture of keratinocytes and melanocytes; experiment: Cytotoxicity on coculture, estimated by leucine incorporation; assay type: cell-based
Procedure: (§1) The modulatory effect of each compound on melanogenesis was measured according to the method described in FR-A-2734825 and also in the article by R. Schmidt, P. Krien and M. Regnier, Anal. Bichem., 235(2), 113-18,1996. This test is carried out on a coculture of keratinocytes and melanocytes.
(§2) For the compounds tested, the following were determined: • the cytotoxicity, by estimating leucine incorporation, • the inhibitory activity on melanin synthesis, by estimating the ratio of thiouracil incorporation to leucine incorporation, relative to 100% of the control (the control corresponds to the test carried out without test compound). The IC50 values (concentration for which 50% of the melanin synthesis is inhibited) were determined.
(§3) The test was also carried out with arbutin, niacinamide and kojic acid, which are known depigmenting compounds.

[2] = test system: coculture of keratinocytes and melanocytes; experiment: Inhibitory activity on melanin synthesis (constitutive melanogenesis), ratio of thiouracil incorporation to leucine incorporation; assay type: cell-based; conditions: for IC50: read-out: IC50 (concentration for which 50% of the melanin synthesis is inhibited); for efficacy in inhibiting melanogenesis compared with known depigmenting compounds: conclusion in words from the coculture test
Procedure: as §1, §2, §3

[3] = ratio of thiouracil to leucine incorporation, relative to 100% of the control, coculture of keratinocytes and melanocytes

For `OC[C@H]1O[C@@H](Oc2ccc(O)cc2)[C@H](O)[C@@H](O)[C@@H]1O` [Arbutin, reference compound], the Cytotoxicity on coculture [1] was “Non-cytotoxic” and the IC50 [2, 3] was greater than 500 µM.
In the case of `CCNC(=O)c1ccc[nH]c1=S` [Compound 2, N-ethyl-2-thioxo-1,2-dihydropyridine-3-carboxamide], the Cytotoxicity on coculture [1] is reported as “Non-cytotoxic”, the “efficacy in inhibiting melanogenesis compared with known depigmenting compounds” value [2] is reported as “more effective than arbutin, kojic acid and niacinamide; also recorded: the most effective compound” and the IC50 [2, 3] is reported as 4.9 µM.
For `CCCCCNC(=O)c1ccc[nH]c1=S` [Compound 7, N-pentyl-2-thioxo-1,2-dihydropyridine-3-carboxamide], the Cytotoxicity on coculture [1] was “Non-cytotoxic”, the “efficacy in inhibiting melanogenesis compared with known depigmenting compounds” value [2] was “more effective than arbutin, kojic acid and niacinamide” and the IC50 [2, 3] was 32 µM.
With `O=C(NC1CCCCC1)c1ccc[nH]c1=S` [Compound 12, N-cyclohexyl-2-thioxo-1,2-dihydropyridine-3-carboxamide] the Cytotoxicity on coculture [1] was “Non-cytotoxic”, the “efficacy in inhibiting melanogenesis compared with known depigmenting compounds” value [2] was “more effective than arbutin, kojic acid and niacinamide” and the IC50 [2, 3] was 37 µM.
In the case of `COc1ccc(CCNC(=O)c2ccc[nH]c2=S)cc1` [Compound 16, N-[2-(4-methoxyphenyl)ethyl]-2-thioxo-1,2-dihydropyridine-3-carboxamide], the Cytotoxicity on coculture [1] is reported as 100 µM, the “efficacy in inhibiting melanogenesis compared with known depigmenting compounds” value [2] is reported as “more effective than arbutin, kojic acid and niacinamide” and the IC50 [2, 3] is reported as 25 µM.
With `O=C(NCCO)c1ccc[nH]c1=S` [Compound 19, N-(2-hydroxyethyl)-2-thioxo-1,2-dihydropyridine-3-carboxamide] the Cytotoxicity on coculture [1] was “Non-cytotoxic”, the “efficacy in inhibiting melanogenesis compared with known depigmenting compounds” value [2] was “more effective than arbutin, kojic acid and niacinamide” and the IC50 [2, 3] was 410 µM.
With `O=C(NCC(O)CO)c1ccc[nH]c1=S` (stereo not drawn) [Compound 21, N-(2,3-dihydroxypropyl)-2-thioxo-1,2-dihydropyridine-3-carboxamide] the Cytotoxicity on coculture [1] was “Non-cytotoxic”, the “efficacy in inhibiting melanogenesis compared with known depigmenting compounds” value [2] was “more effective than arbutin, kojic acid and niacinamide” and the IC50 [2, 3] was 128 µM.
With `CCN(CC)C(=O)c1ccc[nH]c1=S` [Compound 27, N,N-diethyl 2-mercaptonicotinamide] the Cytotoxicity on coculture [1] was “Non-cytotoxic”, the “efficacy in inhibiting melanogenesis compared with known depigmenting compounds” value [2] was “more effective than arbutin, kojic acid and niacinamide” and the IC50 [2, 3] was 29 µM.
`O=c1cc(CO)occ1O` [Kojic acid, reference compound] showed a Cytotoxicity on coculture [1] of 100 µM and an IC50 [2, 3] greater than 500 µM.
In the case of `NC(=O)c1cccnc1` [Niacinamide, reference compound], the Cytotoxicity on coculture [1] is reported as “Non-cytotoxic” and the “IC50 (concentration for which 50% of the melanin synthesis is inhibited)” value [2, 3] is reported as “Not attained”.
